Data: patent publication US6737383B1, “Herbicidal oxadiazolidines” (priority 1999, dated 2004)

Columns and labels:
[1] = test system: blackgrass; test: Test B pre/postemergence blackgrass; type: in vivo, Alopecurus myosuroides
Outline: (§1)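 Test chemicals in a non-phytotoxic solvent mixture with surfactant were sprayed preemergence onto planted seeds and postemergence onto plants 2 to 18 cm tall (1- to 4-leaf stage). After twelve to sixteen days in a greenhouse, injury was visually rated against untreated controls from 0 (no effect) to 10 (complete control).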

[2] = test system: velvetleaf; test: Test B pre/postemergence velvetleaf; type: in vivo, Abutilon theophrasti
Outline: as §1

[3] = test system: soybean; test: Test B pre/postemergence soybean; type: in vivo, Glycine max
Outline: as §1

[4] = test system: bedstraw; test: Test B pre/postemergence bedstraw; type: in vivo, Galium aparine; settings: for Bedstraw plant response rating: Postemergence; for Plant response rating, Bedstraw: Preemergence
Outline: as §1

[5] = test system: wheat; test: Test B pre/postemergence wheat; type: in vivo, Triticum aestivum
Outline: as §1

[6] = test system: cocklebur; test: Test B pre/postemergence cocklebur; type: in vivo, Xanthium strumarium
Outline: as §1

[7] = test system: corn; test: Test B pre/postemergence corn; type: in vivo, Zea mays; settings: for Corn plant response rating: Postemergence; for Plant response rating, Corn: Preemergence
Outline: as §1

[8] = test system: pigweed; test: Test B pre/postemergence pigweed; type: in vivo, Amaranthus retroflexus
Outline: as §1

[9] = test system: morningglory; test: Test B pre/postemergence morningglory; type: in vivo, Ipomoea hederacea; settings: for Morningglory plant response rating: Postemergence; for Plant response rating, Morningglory: Preemergence
Outline: as §1

[10] = test system: surinam grass; test: Test B pre/postemergence surinam grass; type: in vivo, Brachiaria decumbens
Outline: as §1

[11] = test system: giant foxtail; test: Test B pre/postemergence giant foxtail; type: in vivo, Setaria faberii
Outline: as §1

[12] = test system: smallflower flatsedge; test: Test B flood test smallflower flatsedge; type: in vivo, Cyperus difformis
Outline: (§2)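 Flood test on plants grown to the 2-leaf stage; treated plants kept in greenhouse twelve to sixteen days, then visually rated against controls on a 0 (no effect) to 10 (complete control) scale.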

[13] = test system: rice; test: Test B flood test rice; type: in vivo, Oryza sativa
Outline: as §2

[14] = test system: bamyardgrass; test: Test B flood test barnyardgrass; type: in vivo, Echinochloa crus-galli
Outline: as §2

[15] = test system: wild oat; test: Test B pre/postemergence wild oat; type: in vivo, Avena fatua
Outline: as §1

[16] = test system: crabgrass; test: Test B pre/postemergence crabgrass; type: in vivo, Digitaria sanguinalis
Outline: as §1

[17] = Postemergence, Rate 62 g/ha, scale 0 to 10, 0 is no effect, 10 is complete control
[18] = Postemergence, Rate 250 g/ha, scale 0 to 10, 0 no effect, 10 complete control
[19] = Preemergence, Rate 62 g/ha, scale 0 to 10, 0 is no effect, 10 is complete control
[20] = Preemergence, Rate 125 g/ha, scale 0 to 10 (0 no effect, 10 complete control)
[21] = Preemergence, Rate 250 g/ha, scale of 0 to 10 where 0 is no effect and 10 is complete control
[22] = Preemergence, Rate 500 g/ha, scale 0 (no effect) to 10 (complete control)
[23] = Rate 125 g/ha, Postemergence, scale 0 to 10, 0 no effect, 10 complete control
[24] = Rate 500 g/ha, Postemergence, scale 0 to 10, 0 no effect, 10 complete control
[25] = Rate 62 g/ha, scale 0 to 10, 0 is no effect, 10 is complete control
[26] = Rate 125 g/ha, scale 0 to 10 (0 no effect, 10 complete control)
[27] = Rate 250 g/ha, scale of 0 to 10 where 0 is no effect and 10 is complete control
[28] = Rate 125 g/ha, scale 0 to 10, 0 no effect, 10 complete control
[29] = Rate 250 g/ha, scale 0 to 10, 0 no effect, 10 complete control
[30] = Rate 500 g/ha, scale 0 to 10, 0 no effect, 10 complete control
[31] = Rate 125 g/ha, Postemergence section (flood test species), scale 0 to 10, 0 no effect, 10 complete control
[32] = Rate 500 g/ha, listed under Postemergence (flood test species), scale 0 to 10, 0 no effect, 10 complete control
[33] = flood test, listed under Postemergence, Rate 250 g/ha, scale 0 to 10, 0 no effect, 10 complete control

Cc1cccc(Cl)c1-n1c(=O)on(C(=O)N(c2ccc(F)cc2)C(C)C)c1=O [Compound 53]
1: Plant response rating, Blackgrass [1, 20] | Plant response rating, Blackgrass [1, 21] | Velvetleaf plant response rating [2, 18] | Velvetleaf plant response rating [2, 24] | Redroot pigweed plant response rating [8, 17] | Morningglory plant response rating [9, 25] | Morningglory plant response rating [9, 28] | Crabgrass plant response rating [16, 17]
5: Morningglory plant response rating [9, 29] | Plant response rating, Crabgrass [16, 20]
8: Plant response rating, Giant foxtail [11, 21]
6: Redroot pigweed plant response rating [8, 18] | Morningglory plant response rating [9, 30] | Crabgrass plant response rating [16, 18]
10: Redroot pigweed plant response rating [8, 24] | Giant foxtail plant response rating [11, 22] | Crabgrass plant response rating [16, 22] | Crabgrass plant response rating [16, 24]
4: Blackgrass plant response rating [1, 22] | Cocklebur plant response rating [6, 18] | Cocklebur plant response rating [6, 24] | Crabgrass plant response rating [16, 23]
7: Plant response rating, Crabgrass [16, 21]
2: Bedstraw plant response rating [4, 25] | Plant response rating, B. signalgrass [10, 21] | Wild oats plant response rating [15, 24]
— 0 0 0 0: Cocklebur plant response rating [6, 22]
0: Blackgrass plant response rating [1, 17] | Blackgrass plant response rating [1, 18] | Plant response rating, Blackgrass [1, 19] | Blackgrass plant response rating [1, 23] | Blackgrass plant response rating [1, 24] | Velvetleaf plant response rating [2, 17] | Plant response rating, Velvetleaf [2, 19] | Plant response rating, Velvetleaf [2, 20] | Plant response rating, Velvetleaf [2, 21] | Velvetleaf plant response rating [2, 22] | Velvetleaf plant response rating [2, 23] | Plant response rating, Soybean [3, 19] | Plant response rating, Soybean [3, 20] | Plant response rating, Soybean [3, 21] | Soybean plant response rating [3, 22] | Plant response rating, Bedstraw [4, 25] | Plant response rating, Bedstraw [4, 26] | Plant response rating, Bedstraw [4, 27] | Wheat plant response rating [5, 17] | Wheat plant response rating [5, 18] | Plant response rating, Wheat [5, 19] | Plant response rating, Wheat [5, 20] | Plant response rating, Wheat [5, 21] | Wheat plant response rating [5, 22] | Wheat plant response rating [5, 23] | Wheat plant response rating [5, 24] | Cocklebur plant response rating [6, 17] | Plant response rating, Cocklebur [6, 19] | Plant response rating, Cocklebur [6, 21] | Cocklebur plant response rating [6, 23] | Corn plant response rating [7, 25] | Corn plant response rating [7, 29] | Plant response rating, Corn [7, 25] | Plant response rating, Corn [7, 26] | Plant response rating, Corn [7, 27] | Corn plant response rating [7, 28] | Corn plant response rating [7, 30] | Plant response rating, Redroot pigweed [8, 19] | Plant response rating, Redroot pigweed [8, 20] | Plant response rating, Redroot pigweed [8, 21] | Plant response rating, Morningglory [9, 25] | Plant response rating, Morningglory [9, 26] | Plant response rating, Morningglory [9, 27] | B. signalgrass plant response rating [10, 17] | B. signalgrass plant response rating [10, 18] | Plant response rating, B. signalgrass [10, 19] | Plant response rating, B. signalgrass [10, 20] | B. signalgrass plant response rating [10, 23] | B. signalgrass plant response rating ([10]; Rate 500 g/ha, Postemergence, scale of 0 to 10 where 0 is no effect and 10 is complete control) | Giant foxtail plant response rating [11, 17] | S. Flatsedge plant response rating [12, 17] | S. Flatsedge plant response rating [12, 31] | S. Flatsedge plant response rating [12, 32] | S. Flatsedge plant response rating [12, 33] | Rice plant response rating [13, 17] | Rice plant response rating [13, 31] | Rice plant response rating [13, 32] | Rice plant response rating [13, 33] | Barnyardgrass plant response rating [14, 17] | Barnyardgrass plant response rating [14, 31] | Barnyardgrass plant response rating [14, 32] | Barnyardgrass plant response rating [14, 33] | Wild oats plant response rating [15, 17] | Wild oats plant response rating [15, 18] | Plant response rating, Wild oats [15, 20] | Plant response rating, Wild oats [15, 21] | Wild oats plant response rating [15, 22] | Wild oats plant response rating [15, 23]
3: Soybean plant response rating [3, 17] | Soybean plant response rating [3, 18] | Soybean plant response rating [3, 23] | Soybean plant response rating [3, 24] | Bedstraw plant response rating [4, 28] | Redroot pigweed plant response rating [8, 22] | Redroot pigweed plant response rating [8, 23] | B. signalgrass plant response rating [10, 22] | Giant foxtail plant response rating [11, 18] | Plant response rating, Giant foxtail [11, 19] | Plant response rating, Giant foxtail [11, 20] | Giant foxtail plant response rating [11, 23] | Giant foxtail plant response rating [11, 24] | Plant response rating, Crabgrass [16, 19]
